What all share (assay): growth of human tumour cells (NCI), 48 h
The test system of assay [1] is HCT-116 colon.
Assay [2] deals with NCI-H522 lung.
Assay [3] has as its system SW-620 colon.
The subject of assay [4] is HT29 colon.
Assay [5] concerns T-47D breast.
Assay [6] concerns M14 melanoma.
For assay [7], the system named is DU-145 prostate.
The test system of assay [8] is OVCAR-4 ovarian.
Assay [9] concerns HCT-15 colon.
The test system of assay [10] is KM12 colon.
Assay [11] concerns SK-MEL-5 melanoma.
The subject of assay [12] is OVCAR-8 ovarian.
Assay [13] concerns SNB-75 CNS.
Assay [14] has as its system PC-3 prostate.
The subject of assay [15] is A549 NSCLC.
The subject of assay [16] is RXF 393 renal.
Assay [17] relates to SN12C renal.
The subject of assay [18] is RPMI-8226 leukemia.
For assay [19], the system named is SF-295 CNS.

Data on 16 molecules can be found in PubChem BioAssay (NCI).

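Each compound was tested at five concentrations against cells in 96-well plates for 48 hours. Definition used: TGI = concentration required for complete inhibition of growth.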

As to `Cc1cc(S(=O)(=O)NC2=NCCCN2)c(S)cc1Cl`, the TGI in assay [1] is 94.1 µM; in assay [2], 62.8 µM; in assay [3], 37.8 µM; in assay [4], 49.6 µM; in assay [5] it was greater than 100 µM; in assay [6], 86.1 µM. Further, the TGI in [7] is greater than 100 µM; in assay [8], greater than 100 µM; in [9], greater than 100 µM; in assay [10], greater than 100 µM; in [11], 32.4 µM; in [12] it was 67.6 µM. Besides, the TGI in assay [13] was greater than 100 µM; in assay [14], greater than 100 µM; in assay [15], 53.9 µM; in assay [16], greater than 100 µM; in assay [17], greater than 100 µM.

On to `O=C1C=C(NCC(c2ccccc2)c2ccccc2)C(=O)c2ncccc21`, for which the TGI was greater than 23.7 µM in [1]; 3.57 µM in [2]; 25.8 µM in assay [4]; 13.4 µM in assay [5]; 3.25 µM in assay [6]; 4.74 µM in assay [7]. The TGI in assay [8] was 7.29 µM; in assay [9], 1.34 µM; in [10] it was 16.5 µM; in [11], 1.62 µM; in assay [18], 5.84 µM; in assay [12], 11.5 µM. Besides, the TGI in assay [13] is 2.77 µM; in [14], 6.24 µM; in [15], 1.87 µM; in assay [17] it was 5.16 µM; in assay [19], 3.51 µM.

As to `CN(C)CCNC(=O)c1cccc2c1Oc1cccc([N+](=O)[O-])c1O2`, the TGI in assay [1] worked out at 30.6 µM; in assay [2], 32.9 µM; in assay [3] it was 46.2 µM; in assay [4], 33.5 µM; in assay [5], 27.9 µM; in assay [6], 30 µM. Besides, the TGI is 31.5 µM in assay [7]; greater than 100 µM in assay [9]; 44.7 µM in [10]; 33.2 µM in assay [11]; 50 µM in assay [12]; 40.5 µM in assay [13]. Moreover, the TGI in [14] is 29.8 µM; in [15], 35.9 µM; in [17], greater than 100 µM; in assay [19] it was 36.7 µM.

As for `C=CCc1oc(C)nc1CCCC`, the TGI in assay [1], in assay [2], in [3], in [4], in assay [5] and in assay [6] was greater than 100 µM each time. In addition, the TGI in [7], in assay [8], in assay [9], in [10], in assay [11] and in assay [12] was greater than 100 µM each time. In addition, the TGI in assay [13], in [14], in assay [15], in assay [16], in [17] and in assay [19] was greater than 100 µM in each case.

Turning to `O=[N+]([O-])c1cccc(-c2cn3c(n2)Cc2ccccc2C3)c1`, the TGI in assay [1], in [2], in [3], in [4], in [5] and in assay [6] was greater than 100 µM in each case. The TGI in [7], in assay [8], in [9], in assay [10], in [11] and in assay [12] was greater than 100 µM throughout. In addition, the TGI in assay [13], in [14], in [15], in assay [16], in [17] and in assay [19] was greater than 100 µM throughout.

Turning to `CCOC(=O)c1csc(C(CSCc2ccc(OC)cc2)N2C(=O)c3ccccc3C2=O)n1` (centres undefined), the TGI in [1] was greater than 100 µM; in [2], 58.4 µM; in assay [3], greater than 100 µM; in assay [4], greater than 100 µM; in assay [5], greater than 100 µM; in assay [6], greater than 100 µM. The TGI in assay [7], in assay [8], in [9], in assay [10], in [11] and in assay [18] was greater than 100 µM throughout. Besides, the TGI in [12], in assay [14], in assay [15], in [16], in assay [17] and in assay [19] was greater than 100 µM throughout.

In the case of `CCOC(=O)N/N=C(\CC)NO`, the TGI in [1], in assay [2], in assay [3], in assay [4], in assay [5] and in assay [7] was greater than 100 µM throughout. The TGI in assay [8], in assay [9], in assay [10], in [11], in assay [18] and in assay [12] was greater than 100 µM in each case. Moreover, the TGI in [14], in assay [15], in [16] and in assay [17] was greater than 100 µM each time.

As to `Cc1ccc2c(c1)C=CC1(O2)N(c2ccccc2)C(=S)OC1(C)C` (centres undefined), the TGI is greater than 100 µM in assay [1]; greater than 100 µM in [3]; greater than 100 µM in assay [4]; 20.7 µM in assay [5]; greater than 100 µM in assay [6]; greater than 100 µM in assay [7]. The TGI in [8], in [9], in assay [10], in assay [11], in [18] and in [12] was greater than 100 µM throughout. Further, the TGI in assay [13], in assay [14], in [15], in [16], in assay [17] and in assay [19] was greater than 100 µM in each case.

With `C[C@H](c1ccccc1)n1c(N)c(-c2nc3ccccc3s2)c2ccc([N+](=O)[O-])cc2c1=O`, the TGI in assay [1] was 10.9 µM; in assay [2] it was greater than 19.7 µM; in assay [3], greater than 100 µM; in [4], greater than 52.7 µM; in assay [5], 17.6 µM; in assay [6], greater than 100 µM. Further, the TGI was greater than 38.8 µM in assay [7]; greater than 100 µM in assay [8]; greater than 75.4 µM in assay [9]; 61.2 µM in assay [10]; 19.8 µM in assay [11]; 1.87 µM in [18]. The TGI in assay [12] was greater than 100 µM; in assay [13], greater than 91.7 µM; in assay [14], greater than 65.7 µM; in assay [15], greater than 100 µM; in assay [17], greater than 100 µM; in [19] it was 50.8 µM.

`COc1ccc(C(OCC2OC3(COC(c4ccccc4)(c4ccc(OC)cc4)c4ccc(OC)cc4)C(Oc4nc(=O)ccn43)C2O)(c2ccccc2)c2ccc(OC)cc2)cc1` (centres undefined): the TGI in assay [1], in assay [2], in assay [3], in [4], in assay [5] and in assay [6] was greater than 100 µM in each case. Also, the TGI in assay [7], in assay [8], in [9], in assay [10], in assay [11] and in assay [18] was greater than 100 µM in each case. In addition, the TGI in assay [12], in assay [14], in assay [15], in assay [16], in assay [17] and in assay [19] was greater than 100 µM throughout.

For `COc1c2cc([N+](=O)[O-])cc1CN(C(=O)C(F)(F)F)CCOCCN(C(=O)C(F)(F)F)C2`, the TGI in assay [1], in [2], in assay [3], in assay [4], in [5] and in assay [6] was greater than 100 µM each time. Moreover, the TGI in assay [7], in [8], in assay [9], in [10], in assay [11] and in [12] was greater than 100 µM throughout. In addition, the TGI in [13], in assay [14], in assay [15], in assay [17] and in assay [19] was greater than 100 µM each time.

As to `COc1ccc2nc3n(c2c1)C(c1c(F)cccc1F)SC3` (centres undefined), the TGI in assay [1] was 75.2 µM; in assay [3] it was greater than 100 µM; in assay [4], greater than 100 µM; in assay [5] it was greater than 100 µM; in assay [6], greater than 100 µM; in [7] it was greater than 100 µM. The TGI in assay [8], in assay [9], in assay [10], in assay [11], in [18] and in assay [12] was greater than 100 µM each time. For the same molecule, the TGI in [13], in assay [14], in [15], in assay [16], in assay [17] and in assay [19] was greater than 100 µM throughout.

In the case of `CC(=O)NC1CC(C(C)(C)NC(C)=O)CC=C1C` (centres undefined), the TGI in assay [1], in [2], in assay [3], in [4], in assay [5] and in assay [6] was greater than 100 µM in each case. The TGI in assay [7], in assay [8], in [9], in [10], in assay [11] and in [12] was greater than 100 µM in each case. Also, the TGI in [13], in [14], in assay [15], in assay [17] and in assay [19] was greater than 100 µM throughout.

Regarding `Clc1ccc(C(Cc2ccccc2)c2c(Cl)nc(N3CCNCC3)nc2Cl)cc1` (centres undefined), the TGI in [1] was found to be 20.5 µM; in assay [2] it was 25.9 µM; in assay [3], 27.7 µM; in assay [4] it was 6.27 µM; in assay [5], 29.6 µM; in assay [6] it was 29.7 µM. The TGI in assay [7] stood at 27.6 µM; in assay [8], 43 µM; in assay [9] it was 14.5 µM; in assay [10], 20.7 µM; in assay [11], 27.8 µM; in [18], 33.7 µM. In addition, the TGI in assay [12] was found to be 27.3 µM; in [13], 27.2 µM; in assay [14], 28 µM; in assay [15], 30.4 µM; in [17] it was 28.8 µM; in assay [19], 36 µM.

For the molecule `CNC(=O)CCCNC(=O)CCCCC(=O)N(C)C`, the TGI in assay [1], in assay [2], in assay [3], in assay [4], in assay [5] and in assay [6] was greater than 100 µM throughout. Moreover, the TGI in assay [7], in [8], in assay [10], in assay [11], in assay [18] and in [12] was greater than 100 µM in each case. The TGI in [14], in assay [15], in assay [16], in assay [17] and in assay [19] was greater than 100 µM throughout.

Consider `C=CCSC1=N/C(=C\c2ccc(OC)cc2)C(=O)N1CC=C`, for which the TGI in assay [1], in [2], in assay [3], in [4], in [5] and in assay [6] was greater than 100 µM in each case. The TGI was greater than 100 µM in assay [7]; greater than 100 µM in assay [8]; greater than 100 µM in assay [9]; 71.7 µM in assay [10]; 29 µM in [11]; 42 µM in assay [18]. The TGI in [12] is greater than 100 µM; in assay [14], 80.1 µM; in [15], greater than 100 µM; in assay [16] it was 50.1 µM; in [17], 62.2 µM; in [19], greater than 100 µM.
